From the NIST ThermoML archive (doi:10.1021/je700186v)
± gives the expanded uncertainty stated by the source.

Conditions: Crystal; visual observation

C1CN2CCN1CC2 [1,4-diazabicyclo[2.2.2]octane]
Normal melting temperature: 159.30 ± 1.1 °C
